Experimental findings from patent publication US11384172B2, “Polymer, antimicrobial agent, disinfectant, antimicrobial material, disinfectant material, antimicrobial method, and disinfecting method” (JSR CORPORATION, priority 2015, dated 2022) are described below.

Assay in all cases: Antimicrobial and disinfecting properties test (liquid medium dilution series, visual turbidity)
Holding throughout (type): cell-based
Holding throughout (conditions): 37° C., 16 hours

For test [1], the system named is E. coli (drug sensitive strain, DH5α). As for the experimental part: (§1) Into 500 mL of hexane, 10 g of the polymer obtained in each of the above Synthesis Examples was added dropwise over 2 hours, and then vacuum drying was performed at 40° C. for 24 hours. The powder thus obtained was used for a test.
(§2) 30.4 g of a medium (Mueller Hinton II) was weighed out, and dissolved in 800 mL of sterile water, and the resultant mixture was subjected to an autoclave treatment at 121° C. and 2 atm for 15 minutes.
(§3) Each of the bacteria of the following (1) to (8) was suspended in 1 mL of the liquid medium obtained in the above “preparation of liquid medium”, OD600 was measured, and a liquid medium was added so that the amount of bacteria is 1×10^8 cfu/mL to prepare each of the bacterial liquids.
(1) E. coli (drug sensitive strain, DH5α)
(§4) A polymer (A-1) and water were mixed to prepare 10 mg/mL of a polymer aqueous solution. […]
(§5) The turbidity of each of the wells was visually discriminated and the growing state of the bacteria was confirmed. The concentrations of the dilution series, at which it was visually determined that the antimicrobial action and disinfecting action were performed without cloudiness, are shown in Table 3.
(§6) The antimicrobial and the disinfecting properties were evaluated in a similar manner as in Example 1 except that each of the compounds shown in Table 3 was used in place of the polymer (A-1) in Example 1. […]

Test [2] concerns Pseudomonas aeruginosa (MP-1 producing strain, ST235). As for the experimental part:
as §1, §2, §3
(7) Pseudomonas aeruginosa (MP-1 producing strain, ST235)
as §4, §5, §6

Test [3] concerns MRSA (S. aureus methicillin-resistant strain). As for the experimental part:
as §1, §2, §3
(8) MRSA (S. aureus methicillin-resistant strain)
as §4, §5, §6

The test system of test [4] is S. aureus (drug sensitive strain, ATCC29213). As for the experimental part: as §1, §2, §3
(2) S. aureus (drug sensitive strain, ATCC29213)
as §4, §5, §6

For test [5], the system named is E. coli (IMP-1 producing strain, ST131). As for the experimental part: as §1, §2, §3
(4) E. coli (IMP-1 producing strain, ST131)
as §4, §5, §6

Test [6] relates to A. baumannii (OXA-23 producing strain, ST2). The method, then:
as §1, §2, §3
(6) A. baumannii (OXA-23 producing strain, ST2)
as §4, §5, §6

Test [7] deals with Klebsiella pneumoniae (KPC-2 producing strain, ST258).
Experimental: (5) Klebsiella pneumoniae (KPC-2 producing strain, ST258)
Into 897.6 μL of the prepared liquid medium, 102.4 μL of the above-described polymer aqueous solution was added so that the concentration of the polymer is 1024 μg/mL. This solution was diluted 2 times in wells of a 96-well plate to prepare a dilution series of 1024 μg/mL to 0.015625 μg/mL. Next, 5 μL of a bacterial liquid was added to each of the wells and incubated at 37° C. for 16 hours.
The test system of test [8] is E. coli (NDM-1 producing strain). The method, then: as §1, §2, §3
(3) E. coli (NDM-1 producing strain)
as §4, §5, §6

Turning to `N=C(N)NC(N)=Nc1ccccc1` [Phenyl biguanide, phenyl biguanide], the “concentration of the dilution series at which antimicrobial and disinfecting action was visually determined without cloudiness” value in test [1] was >1024 µg/mL; in test [2], >1024 µg/mL; in test [3], >1024 µg/mL; in test [4], >1024 µg/mL; in test [5], 1024 µg/mL; in test [6], 1024 µg/mL. For the same compound, the “concentration of the dilution series at which antimicrobial and disinfecting action was visually determined without cloudiness” value is >1024 µg/mL in test [7] and 1024 µg/mL in test [8].
